In patent publication US11612586B2, “Indole regulation of antigen presenting cells” (THE TEXAS A&M UNIVERSITY SYSTEM, priority 2016, dated 2023):

Legend:
Assay type in all cases: cell-based, mouse
[1] = test system: Erk; assay: phospho-Erk signaling in BMDMs; details: 1 mM TDMM 24 hours, LPS 1 ug/ml 15 minutes
Method: (§1) The PI3K/Akt and MAPK/Erk signaling pathways regulate many cellular processes including survival, apoptosis, growth, and cytokine production. […] Specifically, BMDMs were treated with indole (1 mM) or DMF control for 18 hours, then stimulated with LPS (10 ug/ml) or CpG (5 uM) for 30 minutes. Cells were stained for phospho-Akt or phospho-Erk and analyzed by flow cytometry.
(§2) The inventors performed a series of assays where bone marrow derived macrophages (BMDMs), bone marrow derived dendritic cells (BMDCs), and splenic dendritic cells (splenic DCs), were exposed to a series of TDMMs, including indole, indole-3-acetate (I3AT), 5-hydroxyindole (5HI), and indole-3-pyruvate (I3P), as well as indole-3-carbinol (I3C; a plant derived compound) to be used for a positive control (1 mM for 24 hours). The BMDMs and BMDCs were stimulated with LPS for 4 hours and assayed at day 7 for expression of various pro-inflammatory cytokines. In a similar assay, the BMDMs and BMDCs were stimulated with LPS or CpG, respectively, for 15 minutes and assayed for pAKT and pERK signaling, which is a reflection of pro-inflammatory response.

[2] = test system: Akt; assay: phospho-Akt signaling in BMDMs; details: 1 mM TDMM 24 hours, LPS 1 ug/ml 15 minutes
Method: as §1, §2

[3] = test system: IL-12; assay: IL-12 production in BMDCs, intracellular staining, flow cytometry; details: BMDCs, 1 mM TDMM 24 hours, LPS (1 ug/ml) 4 hours
Method: (§3) Intracellular staining was performed to assess TNF (FIG. 3A) and IL-12 (FIG. 3B) production.
(§4) Briefly, bone marrow was harvested from femurs of mice and cultured for 7 days in the presence of DC-skewing cytokines, GM-CSF and IL-4. […] The pro-inflammatory cytokines, IL-6 and IL-12, were specifically queried. […] Immune cells communicate largely through the production of soluble factors including cytokines, and DCs detect these signals and determine their effector functions accordingly.
as §2

[4] = test system: Erk; assay: pERK signaling in BMDCs; details: 1 mM TDMM 24 hours, CpG (5 uM) 15 minutes
Method: as §2

[5] = test system: Akt; assay: phospho-Akt in BMDCs, flow cytometry; details: BMDCs, 1 mM TDMM 24 hours, CpG (5 uM) 15 minutes
Method: Flow cytometric analysis was performed on BMDCs conditioned with indole from day 3 of culture and subsequently stimulated with LPS (5 ug/ml) for the given times. Cells were stained for phospho-Akt and analyzed by flow cytometry.
Flow cytometric analysis was performed on BMDCs from WT or AhrKO mice cultured in the presence of indole (1 mM) from day 3. DCs were stimulated with LPS (5 ug/ml) for the given times and stained for phospho-Akt, which was detected by flow cytometry. Percentage of pAkt-positive DCs indicated. Representative data is from one of three independent experiments.
Another central mediator of cellular signaling is the serine/threonine kinase, Akt (also referred to as protein kinase B), which regulates cellular processes including metabolism, growth, proliferation, and survival. The Akt pathway is activated by numerous receptor tyrosine kinases, cytokine receptors, G-protein-coupled receptors, and other molecules which activate the lipid kinase PI3K and result in production of phosphatidylinositol (3,4,5)-trisphosphate (PIPS). This second messenger acts as a docking site at the plasma membrane for Akt where phosphorylation and activation occurs. Akt is located upstream of NF-kB and can induce NF-kB signaling via phosphorylation of IKKα and Tp12. The effect of indole on Akt phosphorylation was assessed to determine whether indole's inhibition of NF-kB might be a secondary effect due to modulation of an upstream target.
as §2

[6] = test system: Stat3; assay: IL-6 induced pSTAT3 signaling in splenic DCs; details: for IL-6 induced pSTAT3 signaling in splenic DCs: TDMM 24 hours, 10 ng/ml IL-6 30 minutes; for IL-6 induced pSTAT3 expression, CD4+ DCs / IL-6 induced pSTAT3 expression, CD4− DCs: splenic DCs, 1 mM TDMM 24 hours, IL-6 (10 ng/ml) 30 minutes
Method: Briefly, flow cytometric analysis was performed on splenic DCs conditioned with the indicated TDMMs for 24 hours and then subsequently stimulated with 10 ng/ml IL-6 for 30 minutes.

[7] = test system: TNF; assay: TNF production in BMDCs, intracellular staining, flow cytometry; details: 1 mM TDMM 24 hours, LPS (1 ug/ml) 4 hours
Method: Intracellular staining was performed to assess TNF production.
as §3, §4, §2

[8] = test system: B220 (CD45R); assay: B220 surface expression on BMDCs; details: BMDCs cultured from day 3 with indole (1 mM) or retinoic acid (1 μM)
Method: (§5) FIGS. 12A and 12B graphically illustrate that indole induces CCR9 and B220 on DCs. BMDCs were cultured in the presence of indole (1 mM), retinoic acid (1 μM), or DMF solvent control from day 3. On day 7, DCs were surface stained for expression of CCR9 and B220 and analyzed by flow cytometry. […] Mean of three independent experiments. * indicates p<0.05 for one-way ANOVA followed by Dunnett's post-test.
An indole-induced upregulation of the B220 (CD45R) antigen was also observed (FIGS. 12A and 12B), which is widely used to distinguish the plasmacytoid DC lineage and is believed to contribute to gut homing. However, more recently B220 has been reported to distinguish a DC subset more closely developmentally related to conventional rather than plasmacytoid DCs and a precursor to resident CD8+ and CD8− conventional DCs.

[9] = test system: naïve CD4+CD25− T cells; assay: DC-T cell co-culture without cell contact (Transwell): Treg induction; details: exogenous TGF-β added, 3 days
Method: Transwell tissue culture plates were used to perform co-cultures with a physical barrier between the two cell types. Naïve CD4+CD25− T cells were FACS-sorted and placed in the bottom of a 24-well Transwell cell culture plate with 0.4 uM polycarbonate membranes that had been coated with α-CD3 (5 ug/ml) and α-CD28 (2 ug/ml). TGF-β was added at the indicated concentrations. […] The T cell to DC ratio was 2:1, as in other co-culture experiments. After 3 days, T cells were stained for Foxp3 and analyzed by flow cytometry.
Naïve CD4+CD25− T cells were FACS-sorted and placed in the bottom of a 24-well Transwell cell culture plate with 0.4 uM polycarbonate membranes (Corning) that had been coated with 5 μg/mL αCD3 (BioXcell 145-2C11) and 2 μg/mL αCD28 (BioXcell 37.51). TGF-β was added at the indicated concentrations. The insert was placed in the well and washed, Day 3-treated BMDCs were added to the top chamber such that culture media was shared, but the cell types were kept physically separate. The T cell to DC ratio was 2:1, as in other co-culture experiments.

[10] = test system: CCR9; assay: CCR9 induction on naïve T cells by conditioned DCs; details: no exogenous RA in the co-culture
Method: FIG. 18 graphically illustrates that indole-conditioned DCs induce CCR9 on naïve T cells upon activation. Naïve CD4+CD25− T cells from OT-II mice were co-cultured with OVA323-339 peptide-loaded BMDCs for 72 hours in the presence of RA as indicated. BMDCs were previously treated with indole, RA, or DMF from day 3. Following 3 days of co-culture, surface staining was performed for flow cytometric analysis.
Based on the observation that indole induces gut homing markers on developing DCs, it was queried whether indole-conditioned DCs could also confer gut homing markers upon naïve CD4+ T cells. The antigen-specific T cell activation model was used to address this question, and a titration of RA was included as a positive control to induce CCR9. […] Just 10 nM of RA enabled indole-DC co-cultures to achieve over 50% of T cells expressing CCR9 which was similar to RA-DC positive controls, whereas DMF-DC co-cultures with the same concentration of RA added achieved only 10% of CCR9+ T cells.
Naïve CD4+CD25− T cells of spleen and lymph nodes from OT-II mice were isolated by negative selection via column purification using the Naïve CD4+ T Cell Isolation Kit (Miltenyi Biotec). Naïve CD4+ T cells (>96% pure) were labeled with Cell Proliferation Dye efluor450 (eBioscience) following manufacturer's instructions then co-cultured with OVA peptide-loaded BMDCs at a ratio of 2:1 for 72 hours in a 96-well round-bottom tissue culture plate. BMDCs were previously treated with indole or RA from day 3. On day 7, DCs were washed extensively prior to being loaded with OVA323-339 peptide (10 ug/ml) for 1 hour at 37° C. BMDCs were then washed three times and plated with naïve CD4+ T cells. RA or TGFβ were added to co-cultures as indicated. Following 3 days of culture, cells were stained with antibodies to CD4, CCR9, and LPAM-1 (α4β7). Intracellular staining for Foxp3 was performed using a Foxp3 staining kit (eBioscience). The remaining CD4+ helper T cell lineages Th1, Th2, and Th17 were identified by their cytokine production. […]

[11] = test system: CCR9; assay: CCR9 surface expression on BMDCs; details: BMDCs cultured from day 3 with indole (1 mM) or retinoic acid (1 μM), day 7
Method: as §5
Dendritic cell subsets bear numerous surface antigens that regulate their migration and localization. Because indole is produced in the gut and appears to induce anti-inflammatory properties in DCs (as described above), it was hypothesized that indole might affect migration and retention in mucosal tissues. Thus, expression of the gut homing marker, chemokine receptor CCR9 was investigated. […] Retinoic acid (RA) was included as a positive control. RA is present in murine plasma at approximately […] and is predicted to exist at higher concentrations in tissue microenvironments in vivo. Thus, 1 uM was used as a conservative estimate of relevant physiological concentration. Indole's effect was even more profound than that of retinoic acid, a known inducer of mucosal homing markers on T cells (see, e.g., Iwata M, et al. (2004) Retinoic Acid Imprints Gut-Homing Specificity on T Cells. Immunity 21(4):527-538). […]

[12] = test system: naïve CD4+CD25− T cells; assay: T cell activation in the presence of BMDC supernatant: Treg induction; details: T cells on α-CD3/α-CD28 plates, 72 hours
Method: Specifically, naïve CD4+CD25− T cells were FACS-sorted and plated in 96-well, α-CD3 and α-CD28-coated tissue culture plates in a volume of 100 ul cell culture media. […] T cells with DC supernatant were cultured for 72 hours in the presence or absence of exogenous TGF-β. Subsequently, cells were stained for the transcription factor Foxp3 and analyzed by flow cytometry.
Naïve CD4+CD25− T cells were FACS-sorted as described above and plated in 96-well, αCD3 and αCD28-coated tissue culture plates in a volume of 100 ul cell culture media. An equal volume of spent BMDC supernatant was added, in the presence or absence of exogenous TGF-β, and T cells were cultured for 72 hours. To generate supernatants, day 3-treated BMDCs were collected on day 7, washed extensively and plated in a 48-well cell culture plate at 5×10^5 cells per well in 500 ul fresh complete media for 24 hours in the presence or absence of 1 ug/ml LPS. Plates were then centrifuged and supernatants were collected, filtered, and stored at −20° C. until use.

[13] = test system: IL-12; assay: IL-12 production in BMDMs, intracellular staining, flow cytometry; details: BMDMs, 1 mM TDMM 24 hours, LPS 1 ug/ml 4 hours
Method: (§6) BMDMs were treated with indole or DMF control for 18 hours or 4 hours, followed by stimulation with LPS (2 ug/ml or 250 ng/ml) for 4 hours in the presence of Golgiplug. BMDMs were then stained for intracellular TNF or IL-12 and analyzed by flow cytometry.
(§7) First, pro-inflammatory cytokine production in macrophages was investigated. […] In the DC study described herein, DCs were typically conditioned with indole during their development from bone marrow precursors in order to mimic the proximity of DC progenitor cells to indole in the intestinal microenvironment during development. […] BMDMs were treated for 18 hours with indole, followed by a 4 hour stimulation with either a very high (2 ug/ml) or low (250 ng/ml) dose of LPS.
(§8) Additionally, to determine if recently arrived macrophage precursors might also be affected, BMDMs were next treated for just 4 hours with indole, followed by a […] stimulation with the same LPS concentrations.
(§9) To address the question of indole and AhR dependence in macrophages, experiments using BMDMs derived from AhR-knockout mice were run alongside wild-type littermate controls. Specifically, flow cytometric analysis of BMDMs was performed on WT or AhR-KO mice and treated with indole or DMF control for 18 hours. BMDMs were stimulated for 4 hours with LPS (50 ng/ml) in the presence of Golgiplug, then stained for intracellular TNF (left panels) and IL-12 (right panels).
as §2
(§10) Bone marrow was harvested as described above and cultured at a density of 1×10^6 cells in 10 ml complete media supplemented with 10 ng/ml M-CSF (Peprotech) in 100 mm×15 mm petri dishes. Media with cytokine was replenished on day 3. Adherent and semi-adherent cells were recovered on day 7, plated, and treated with indole prior to downstream experiments.

[14] = test system: TNF; assay: TNF production in BMDMs, intracellular staining, flow cytometry; details: BMDMs, 1 mM TDMM 24 hours, LPS 1 ug/ml 4 hours
Method: as §6, §7, §8, §9, §2, §10

SMILES | pERK [1] | pAKT [2] | IL-12 [3] | pERK [4] | pAKT [5] | IL-6 induced pSTAT3 signaling in splenic DCs [6] | IL-6 induced pSTAT3 expression, CD4+ DCs [6] | IL-6 induced pSTAT3 expression, CD4− DCs [6] | TNF [7] | B220 (CD45R) expression on BMDCs [8] | Treg induction by conditioned DCs without cell contact over solvent controls [9] | induction of CCR9 on naïve T cells by conditioned BMDCs alone [10] | surface expression of CCR9 on conditioned DCs [11] | Treg induction by supernatant of conditioned BMDCs relative to solvent control DCs [12] | IL-12 [13] | TNF [14]
Oc1ccc2[nH]ccc2c1 [5HI, 5-hydroxyindole] | reduced and ↓ | reduced and ↓ | reduction and ↓ | reduced and ↓ | reduced and ↓ | inhibits | ↓ | ↓ | reduction and ↓↓ | – | – | – | – | – | – | –
CC1=C(/C=C/C(C)=C/C=C/C(C)=C/C(=O)O)C(C)(C)CCC1 [RA, all-trans retinoic acid, reference compound] | – | – | – | – | – | – | – | – | – | does not induce B220 | 3 fold | sufficient | 22% | approximately 2 fold | – | –
O=C(O)C(=O)Cc1c[nH]c2ccccc12 [I3P, indole-3-pyruvate] | No effect | No effect | reduction and ↓ | reduced and ↓ | reduced and ↓ | inhibits | ↓ | ↓ | reduction and ↓ | – | – | – | – | – | – | –
OCc1c[nH]c2ccccc12 [I3C, indole-3-carbinol, reference compound] | ↓↓↓↓ | ↓↓ | ↓↓↓ | ↓↓↓↓ | ↓↓↓↓ | – | ↓↓↓↓ | ↓↓↓↓ | ↓↓↓↓ | – | – | – | – | – | ↓↓↓↓ | ↓↓↓↓
O=C(O)Cc1c[nH]c2ccccc12 [I3AT, indole-3-acetate] | No effect | No effect | reduction and ↓ | reduced and ↓ | reduced and ↓ | inhibits | ↓ | ↓ | reduction and ↓ | – | – | – | – | – | reduction and ↓ | No effect
